In ChEMBL document CHEMBL6109129, “Discovery of Conformationally Constrained Dihydro Benzo-Indole Derivatives as Metallo-β-Lactamase Inhibitors to Tackle Multidrug-Resistant Bacterial Infections” (J Med Chem, 2025):
Active and inactive are the calls of the source. The calls are words filed in the database; no cut-off is given here.

Key:
[1] = biological target: Metallo-beta-lactamase type 2 (Bacteria) (UniProt C7C422); test: Induction of thermal stabilization of NDM-1 (unknown origin) assessed as melting temperature at 3.12 uM by differential scanning fluorimetry analysis
Sequence of Metallo-beta-lactamase type 2 (Bacteria) (C7C422 whole entry): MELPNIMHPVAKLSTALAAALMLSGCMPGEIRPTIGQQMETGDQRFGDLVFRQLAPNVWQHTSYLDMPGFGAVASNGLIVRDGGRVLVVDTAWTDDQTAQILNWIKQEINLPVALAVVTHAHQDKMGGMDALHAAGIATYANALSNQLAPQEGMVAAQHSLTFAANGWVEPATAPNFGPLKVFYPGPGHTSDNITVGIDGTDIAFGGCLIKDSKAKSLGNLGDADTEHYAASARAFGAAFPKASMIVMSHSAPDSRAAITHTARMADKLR

Escherichia coli [2] = test: Synergistic antibacterial activity against carbapenem-resistant Escherichia coli 567975 assessed as reduction in microbial growth at 16 ug/ml measured after 16 to 18 hrs in presence of imipenem by microbial dilution method; type: functional; conditions: dose 16 µg/ml, time 16-18 hrs
[3] = system: Klebsiella pneumoniae subsp. pneumoniae; test: Synergistic antibacterial activity against carbapenem-resistant Klebsiella pneumoniae BAA-2470 assessed as reduction in microbial growth at 16 ug/ml measured after 16 to 18 hrs in presence of meropenem by microbial dilution method; type: functional; conditions: dose 16 µg/ml, time 16-18 hrs
Klebsiella pneumoniae [4] = test: Synergistic antibacterial activity against carbapenem-resistant Klebsiella pneumoniae 552439 assessed as reduction in microbial growth at 16 ug/ml measured after 16 to 18 hrs in presence of imipenem by microbial dilution method; type: functional; conditions: dose 16 µg/ml, time 16-18 hrs
[5] = system: Klebsiella pneumoniae subsp. pneumoniae; test: Synergistic antibacterial activity against carbapenem-resistant Klebsiella pneumoniae subsp. pneumoniae BAA-2472 assessed as reduction in microbial growth at 0.5 ug/ml measured after 16 to 18 hrs in presence of imipenem by microbial dilution method; type: functional; conditions: dose 0.5 µg/ml, time 16-18 hrs
[6] = system: Klebsiella pneumoniae subsp. pneumoniae; test: Synergistic antibacterial activity against carbapenem-resistant Klebsiella pneumoniae subsp. pneumoniae BAA-2472 assessed as reduction in microbial growth at 8 ug/ml measured after 16 to 18 hrs in presence of meropenem by microbial dilution method; type: functional; conditions: dose 8 µg/ml, time 16-18 hrs
Escherichia coli [7] = test: Synergistic antibacterial activity against carbapenem-resistant Escherichia coli 541588 assessed as reduction in microbial growth at 4 ug/ml measured after 16 to 18 hrs in presence of meropenem by microbial dilution method; type: functional; conditions: dose 4 µg/ml, time 16-18 hrs
[8] = Metabolic stability in human liver microsomes assessed as intrinsic clearance at 1 uM preincubated for 5 mins followed by NADPH addition and measured up to 60 mins by LC-MS/MS analysis; type: ADME, Microsome; conditions: time < 65 min, read-out: CLH
Escherichia coli [9] = test: Synergistic antibacterial activity against carbapenem-resistant Escherichia coli 571307 assessed as reduction in microbial growth at 16 ug/ml measured after 16 to 18 hrs in presence of imipenem by microbial dilution method; type: functional; conditions: dose 16 µg/ml, time 16-18 hrs
Klebsiella pneumoniae [10] = test: Synergistic antibacterial activity against carbapenem-resistant Klebsiella pneumoniae 538961 assessed as reduction in microbial growth at 16 ug/ml measured after 16 to 18 hrs in presence of meropenem by microbial dilution method; type: functional; conditions: dose 16 µg/ml, time 16-18 hrs
Escherichia coli [11] = test: Synergistic antibacterial activity against carbapenem-resistant Escherichia coli BAA-2471 assessed as reduction in microbial growth at 8 ug/ml measured after 16 to 18 hrs in presence of imipenem by microbial dilution method; type: functional; conditions: dose 8 µg/ml, time 16-18 hrs
Klebsiella pneumoniae [12] = test: Synergistic antibacterial activity against carbapenem-resistant Klebsiella pneumoniae 538961 assessed as reduction in microbial growth at 4 ug/ml measured after 16 to 18 hrs in presence of meropenem by microbial dilution method; type: functional; conditions: dose 4 µg/ml, time 16-18 hrs
[13] = system: Klebsiella pneumoniae subsp. pneumoniae; test: Synergistic antibacterial activity against carbapenem-resistant Klebsiella pneumoniae subsp. pneumoniae BAA-2470 assessed as reduction in microbial growth at 8 ug/ml measured after 16 to 18 hrs in presence of meropenem by microbial dilution method; type: functional; conditions: dose 8 µg/ml, time 16-18 hrs
Escherichia coli [14] = test: Synergistic antibacterial activity against carbapenem-resistant Escherichia coli BAA-2469 assessed as reduction in microbial growth at 0.5 ug/ml measured after 16 to 18 hrs in presence of meropenem by microbial dilution method; type: functional; conditions: dose 0.5 µg/ml, time 16-18 hrs
Enterobacter cloacae = test: Synergistic antibacterial activity against carbapenem-resistant Enterobacter cloacae BAA-2468 assessed as reduction in microbial growth at 16 ug/ml measured after 16 to 18 hrs in presence of imipenem by microbial dilution method; type: functional; conditions: dose 16 µg/ml, time 16-18 hrs
HepG2 = test: Cytotoxicity in human HepG2 cells assessed as inhibition of cell growth measured after 24 hrs by MTT assay; type: functional, cell-based; conditions: HepG2, 24 h
Klebsiella pneumoniae [15] = test: Synergistic antibacterial activity against Klebsiella pneumoniae ATCC BAA 2146 expressing NDM-1 measured after 16 to 18 hrs in presence of imipenem by microbial dilution method; type: functional, organism-based; conditions: time 16-18 hrs
Klebsiella pneumoniae [16] = test: Synergistic antibacterial activity against carbapenem-resistant Klebsiella pneumoniae BAA-2473 assessed as reduction in microbial growth at 0.5 ug/ml measured after 16 to 18 hrs in presence of meropenem by microbial dilution method; type: functional; conditions: dose 0.5 µg/ml, time 16-18 hrs
Escherichia coli [17] = test: Synergistic antibacterial activity against carbapenem-resistant Escherichia coli BAA-2469 assessed as reduction in microbial growth at 16 ug/ml measured after 16 to 18 hrs in presence of meropenem by microbial dilution method; type: functional; conditions: dose 16 µg/ml, time 16-18 hrs
Escherichia coli [18] = test: Synergistic antibacterial activity against carbapenem-resistant Escherichia coli 565988 assessed as reduction in microbial growth at 16 ug/ml measured after 16 to 18 hrs in presence of meropenem by microbial dilution method; type: functional; conditions: dose 16 µg/ml, time 16-18 hrs
Escherichia coli [19] = test: Synergistic antibacterial activity against carbapenem-resistant Escherichia coli 541588 assessed as reduction in microbial growth at 16 ug/ml measured after 16 to 18 hrs in presence of meropenem by microbial dilution method; type: functional; conditions: dose 16 µg/ml, time 16-18 hrs
[20] = system: Klebsiella pneumoniae subsp. pneumoniae; test: Synergistic antibacterial activity against carbapenem-resistant Klebsiella pneumoniae subsp. pneumoniae BAA-2470 assessed as reduction in microbial growth at 0.5 ug/ml measured after 16 to 18 hrs in presence of imipenem by microbial dilution method; type: functional; conditions: dose 0.5 µg/ml, time 16-18 hrs
Escherichia coli [21] = test: Synergistic antibacterial activity against carbapenem-resistant Escherichia coli BAA-2471 assessed as reduction in microbial growth at 0.5 ug/ml measured after 16 to 18 hrs in presence of imipenem by microbial dilution method; type: functional; conditions: dose 0.5 µg/ml, time 16-18 hrs
Klebsiella pneumoniae [22] = test: Synergistic antibacterial activity against carbapenem-resistant Klebsiella pneumoniae 571278 assessed as reduction in microbial growth at 4 ug/ml measured after 16 to 18 hrs in presence of imipenem by microbial dilution method; type: functional; conditions: dose 4 µg/ml, time 16-18 hrs

COc1ccc(Cl)cc1-c1c(C(=O)O)[nH]c2c1CCc1ccccc1-2
Tm [1]: 14 °C
MIC (Escherichia coli [2]): 1 µg/mL
MIC [3]: 4 µg/mL
MIC (Klebsiella pneumoniae [4]): 1 µg/mL
MIC [5]: 64 µg/mL
MIC [6]: 64 µg/mL
MIC (Escherichia coli [7]): 8 µg/mL
microsomal CLint at 1 µM [8]: 9.8 µL/min/mg
MIC (Escherichia coli [9]): 2 µg/mL
MIC (Klebsiella pneumoniae [10]): 4 µg/mL
MIC (Escherichia coli [11]): 16 µg/mL
MIC (Klebsiella pneumoniae [12]): 16 µg/mL
MIC [13]: 8 µg/mL
MIC (Escherichia coli [14]): 16 µg/mL
MIC (Enterobacter cloacae): 32 µg/mL
IC50 (HepG2): > 400 µM
Activity (Klebsiella pneumoniae [15]): Active
MIC (Klebsiella pneumoniae [16]): > 64 µg/mL
MIC (Escherichia coli [17]): 2 µg/mL
MIC (Escherichia coli [18]): < 0.5 µg/mL
MIC (Escherichia coli [19]): 1 µg/mL
MIC [20]: 16 µg/mL
MIC (Escherichia coli [21]): 32 µg/mL
MIC (Klebsiella pneumoniae [22]): 8 µg/mL
